Experimental data reported in paper PMC9329436, “Optimization of the 4-anilinoquin(az)oline scaffold as epidermal growth factor receptor (EGFR) inhibitors for chordoma utilizing a toxicology profiling assay platform” (Scientific Reports, 2022).
Where two headings read alike, the source gives them in different places.

How the values were obtained:
Assay type in all cases: biochemical
[1] = target: 320 wild-type protein kinases (Homo sapiens, UniProt Q9UEW8); details: kinase STK39, singlicate
Description: (§1) Table S4. Profiling of two compounds at two concentrations against 320 wild-type protein kinases; singlicate measurement; Residual activities (% of control).

[2] = target: 320 wild-type protein kinases (Homo sapiens, UniProt P36507); details: singlicate
Description: as §1

[3] = target: 320 wild-type protein kinases (Homo sapiens, UniProt Q9H1R3); details: singlicate
Description: as §1

[4] = target: 320 wild-type protein kinases (Homo sapiens, UniProt Q13705); details: ACV-R2B, singlicate
Description: as §1

[5] = target: 320 wild-type protein kinases (Homo sapiens, UniProt P57059); details: kinase SIK1, singlicate
Description: as §1

[6] = target: T1, 320 wild-type protein kinases (Homo sapiens, UniProt P51813); details: BMX, singlicate
T1 sequence (P51813 1-675): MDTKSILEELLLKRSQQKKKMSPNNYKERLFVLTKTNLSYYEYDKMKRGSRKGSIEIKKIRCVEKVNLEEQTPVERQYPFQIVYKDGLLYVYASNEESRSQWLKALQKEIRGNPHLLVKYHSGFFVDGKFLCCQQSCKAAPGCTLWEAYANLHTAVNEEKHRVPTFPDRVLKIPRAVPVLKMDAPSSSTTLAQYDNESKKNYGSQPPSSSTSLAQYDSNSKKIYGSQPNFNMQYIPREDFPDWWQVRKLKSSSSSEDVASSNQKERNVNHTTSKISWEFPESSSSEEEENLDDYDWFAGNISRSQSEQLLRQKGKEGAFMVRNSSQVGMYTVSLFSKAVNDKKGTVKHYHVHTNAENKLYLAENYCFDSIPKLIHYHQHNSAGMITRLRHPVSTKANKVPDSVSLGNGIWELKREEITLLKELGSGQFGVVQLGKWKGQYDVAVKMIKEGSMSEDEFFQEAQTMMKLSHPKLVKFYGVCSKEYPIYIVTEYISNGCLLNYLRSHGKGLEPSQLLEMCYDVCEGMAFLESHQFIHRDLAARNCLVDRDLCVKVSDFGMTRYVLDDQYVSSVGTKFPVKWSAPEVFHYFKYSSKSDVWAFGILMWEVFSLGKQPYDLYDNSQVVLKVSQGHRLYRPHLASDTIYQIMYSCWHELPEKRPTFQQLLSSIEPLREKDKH
Description: as §1

[7] = target: 320 wild-type protein kinases (Homo sapiens, UniProt Q9Y5S2); details: CDC42BPB, singlicate
Description: as §1

[8] = target: T2, 320 wild-type protein kinases (Homo sapiens, UniProt Q9BZL6); details: singlicate
T2 sequence (Q9BZL6 1-878): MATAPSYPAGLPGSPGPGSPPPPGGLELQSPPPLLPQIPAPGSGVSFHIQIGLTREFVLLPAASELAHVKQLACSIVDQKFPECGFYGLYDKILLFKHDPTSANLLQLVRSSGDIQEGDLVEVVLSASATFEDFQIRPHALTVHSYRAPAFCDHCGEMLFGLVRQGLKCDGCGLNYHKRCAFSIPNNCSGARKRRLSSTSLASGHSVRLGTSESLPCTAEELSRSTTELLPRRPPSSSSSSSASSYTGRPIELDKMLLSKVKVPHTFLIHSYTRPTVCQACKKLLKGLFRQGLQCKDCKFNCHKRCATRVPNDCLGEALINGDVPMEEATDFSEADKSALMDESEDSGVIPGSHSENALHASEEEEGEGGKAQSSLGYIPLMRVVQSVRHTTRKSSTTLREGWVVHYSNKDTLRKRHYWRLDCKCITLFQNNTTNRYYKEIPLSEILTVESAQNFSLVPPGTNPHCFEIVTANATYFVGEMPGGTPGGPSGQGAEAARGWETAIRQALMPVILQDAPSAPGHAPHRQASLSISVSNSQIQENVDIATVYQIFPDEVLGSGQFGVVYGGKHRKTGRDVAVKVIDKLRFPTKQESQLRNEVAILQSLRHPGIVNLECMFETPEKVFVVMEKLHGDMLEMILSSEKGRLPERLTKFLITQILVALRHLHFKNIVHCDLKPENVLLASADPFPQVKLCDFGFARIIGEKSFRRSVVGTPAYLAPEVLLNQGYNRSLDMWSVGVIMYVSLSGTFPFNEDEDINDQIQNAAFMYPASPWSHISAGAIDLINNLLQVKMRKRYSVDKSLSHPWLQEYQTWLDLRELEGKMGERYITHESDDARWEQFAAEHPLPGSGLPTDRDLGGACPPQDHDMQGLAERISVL
Description: as §1

[9] = target: T3, 320 wild-type protein kinases (Homo sapiens, UniProt Q92630); details: singlicate
T3 sequence (Q92630 1-601): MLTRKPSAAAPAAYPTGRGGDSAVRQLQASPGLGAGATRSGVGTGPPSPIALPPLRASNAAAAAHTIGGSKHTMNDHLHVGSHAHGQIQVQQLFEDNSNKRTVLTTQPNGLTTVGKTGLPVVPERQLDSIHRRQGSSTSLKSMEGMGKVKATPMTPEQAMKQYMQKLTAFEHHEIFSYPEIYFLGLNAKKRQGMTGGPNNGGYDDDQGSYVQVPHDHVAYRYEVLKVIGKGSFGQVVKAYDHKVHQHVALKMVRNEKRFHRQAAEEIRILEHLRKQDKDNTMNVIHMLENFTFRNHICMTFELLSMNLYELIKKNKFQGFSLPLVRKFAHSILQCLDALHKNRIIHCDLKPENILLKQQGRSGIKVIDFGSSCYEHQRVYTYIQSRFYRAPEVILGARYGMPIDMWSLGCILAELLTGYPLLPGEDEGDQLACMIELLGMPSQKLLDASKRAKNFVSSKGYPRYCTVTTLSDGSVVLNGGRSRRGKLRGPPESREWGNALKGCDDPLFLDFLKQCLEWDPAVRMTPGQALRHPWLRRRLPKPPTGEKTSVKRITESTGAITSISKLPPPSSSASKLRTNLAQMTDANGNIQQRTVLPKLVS
Description: as §1

320 wild-type protein kinases (Homo sapiens, UniProt P57059), sequence (P57059 whole entry): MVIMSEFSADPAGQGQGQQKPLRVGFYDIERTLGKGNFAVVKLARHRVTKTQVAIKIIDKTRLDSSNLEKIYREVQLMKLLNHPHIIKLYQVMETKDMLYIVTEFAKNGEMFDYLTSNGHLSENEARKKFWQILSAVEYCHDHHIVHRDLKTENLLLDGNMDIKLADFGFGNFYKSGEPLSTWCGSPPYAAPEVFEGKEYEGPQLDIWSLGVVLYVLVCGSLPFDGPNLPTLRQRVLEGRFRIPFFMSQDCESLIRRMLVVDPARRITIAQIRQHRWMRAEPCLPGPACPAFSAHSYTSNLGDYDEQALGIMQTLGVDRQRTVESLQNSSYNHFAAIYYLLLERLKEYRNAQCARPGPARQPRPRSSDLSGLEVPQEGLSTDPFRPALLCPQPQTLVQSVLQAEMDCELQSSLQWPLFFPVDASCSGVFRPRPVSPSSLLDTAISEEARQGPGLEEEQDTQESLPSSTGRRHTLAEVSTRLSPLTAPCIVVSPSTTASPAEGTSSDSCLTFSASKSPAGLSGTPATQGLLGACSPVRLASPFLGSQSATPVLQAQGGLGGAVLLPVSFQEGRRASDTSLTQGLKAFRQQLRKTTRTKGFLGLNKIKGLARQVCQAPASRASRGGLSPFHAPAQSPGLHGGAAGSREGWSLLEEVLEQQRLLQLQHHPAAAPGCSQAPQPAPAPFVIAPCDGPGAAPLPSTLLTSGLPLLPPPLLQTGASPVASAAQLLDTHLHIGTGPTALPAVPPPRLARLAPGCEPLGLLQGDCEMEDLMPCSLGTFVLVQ
320 wild-type protein kinases (Homo sapiens, UniProt Q13705), sequence (Q13705 19-512): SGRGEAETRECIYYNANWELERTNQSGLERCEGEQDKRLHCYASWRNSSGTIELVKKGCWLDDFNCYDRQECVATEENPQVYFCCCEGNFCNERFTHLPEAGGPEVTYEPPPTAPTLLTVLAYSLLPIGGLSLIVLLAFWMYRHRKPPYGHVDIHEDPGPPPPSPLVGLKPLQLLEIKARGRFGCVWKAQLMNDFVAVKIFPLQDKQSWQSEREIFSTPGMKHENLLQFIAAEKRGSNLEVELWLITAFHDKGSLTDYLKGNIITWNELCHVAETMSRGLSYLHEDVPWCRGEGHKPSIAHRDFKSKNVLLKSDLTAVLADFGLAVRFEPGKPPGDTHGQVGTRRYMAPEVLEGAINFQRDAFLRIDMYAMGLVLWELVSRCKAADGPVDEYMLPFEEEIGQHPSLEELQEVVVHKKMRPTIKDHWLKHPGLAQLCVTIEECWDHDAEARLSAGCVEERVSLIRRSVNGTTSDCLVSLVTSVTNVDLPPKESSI
320 wild-type protein kinases (Homo sapiens, UniProt Q9Y5S2), sequence (Q9Y5S2 whole entry): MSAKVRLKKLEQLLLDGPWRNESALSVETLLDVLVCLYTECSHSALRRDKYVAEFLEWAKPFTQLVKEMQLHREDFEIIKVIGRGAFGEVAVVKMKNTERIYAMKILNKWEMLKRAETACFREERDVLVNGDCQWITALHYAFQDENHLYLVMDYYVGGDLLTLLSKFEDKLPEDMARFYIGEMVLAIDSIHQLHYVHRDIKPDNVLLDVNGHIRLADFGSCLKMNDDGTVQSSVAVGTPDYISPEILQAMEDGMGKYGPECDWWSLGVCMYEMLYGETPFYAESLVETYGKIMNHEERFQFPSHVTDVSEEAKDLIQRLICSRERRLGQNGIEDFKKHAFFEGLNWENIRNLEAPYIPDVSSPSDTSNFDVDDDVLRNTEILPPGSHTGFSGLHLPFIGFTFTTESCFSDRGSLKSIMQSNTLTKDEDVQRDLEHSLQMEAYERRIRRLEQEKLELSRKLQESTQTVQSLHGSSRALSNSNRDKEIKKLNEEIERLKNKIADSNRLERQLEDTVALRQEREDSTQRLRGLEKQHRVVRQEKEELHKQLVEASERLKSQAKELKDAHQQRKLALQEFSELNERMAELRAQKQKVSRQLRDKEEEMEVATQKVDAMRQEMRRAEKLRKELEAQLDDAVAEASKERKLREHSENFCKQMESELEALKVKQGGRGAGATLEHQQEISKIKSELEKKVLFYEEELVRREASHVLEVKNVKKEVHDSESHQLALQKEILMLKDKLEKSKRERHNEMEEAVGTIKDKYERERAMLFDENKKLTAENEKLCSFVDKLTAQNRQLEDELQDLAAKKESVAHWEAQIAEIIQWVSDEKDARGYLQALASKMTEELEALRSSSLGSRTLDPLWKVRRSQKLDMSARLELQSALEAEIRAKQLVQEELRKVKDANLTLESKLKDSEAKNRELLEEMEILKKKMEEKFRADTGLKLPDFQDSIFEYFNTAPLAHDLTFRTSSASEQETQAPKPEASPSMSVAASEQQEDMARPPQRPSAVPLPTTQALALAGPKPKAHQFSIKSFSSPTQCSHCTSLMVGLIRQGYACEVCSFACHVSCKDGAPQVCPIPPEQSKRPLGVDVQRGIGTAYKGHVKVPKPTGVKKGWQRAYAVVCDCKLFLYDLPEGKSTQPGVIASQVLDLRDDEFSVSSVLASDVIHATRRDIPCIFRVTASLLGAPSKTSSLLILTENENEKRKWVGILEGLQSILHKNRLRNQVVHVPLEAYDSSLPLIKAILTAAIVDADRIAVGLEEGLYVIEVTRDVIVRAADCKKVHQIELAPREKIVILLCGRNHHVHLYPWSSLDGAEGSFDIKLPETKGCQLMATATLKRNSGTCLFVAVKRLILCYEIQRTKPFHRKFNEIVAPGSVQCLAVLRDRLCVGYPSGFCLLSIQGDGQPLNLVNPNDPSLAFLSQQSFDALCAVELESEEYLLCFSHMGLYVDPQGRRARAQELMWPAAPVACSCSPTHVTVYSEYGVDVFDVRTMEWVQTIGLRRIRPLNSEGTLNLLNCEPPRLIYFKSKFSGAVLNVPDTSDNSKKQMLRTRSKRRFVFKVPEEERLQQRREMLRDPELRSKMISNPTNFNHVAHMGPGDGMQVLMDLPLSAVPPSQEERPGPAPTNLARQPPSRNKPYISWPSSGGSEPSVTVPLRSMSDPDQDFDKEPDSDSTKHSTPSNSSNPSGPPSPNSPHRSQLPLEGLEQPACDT
320 wild-type protein kinases (Homo sapiens, UniProt P36507), sequence (P36507 whole entry): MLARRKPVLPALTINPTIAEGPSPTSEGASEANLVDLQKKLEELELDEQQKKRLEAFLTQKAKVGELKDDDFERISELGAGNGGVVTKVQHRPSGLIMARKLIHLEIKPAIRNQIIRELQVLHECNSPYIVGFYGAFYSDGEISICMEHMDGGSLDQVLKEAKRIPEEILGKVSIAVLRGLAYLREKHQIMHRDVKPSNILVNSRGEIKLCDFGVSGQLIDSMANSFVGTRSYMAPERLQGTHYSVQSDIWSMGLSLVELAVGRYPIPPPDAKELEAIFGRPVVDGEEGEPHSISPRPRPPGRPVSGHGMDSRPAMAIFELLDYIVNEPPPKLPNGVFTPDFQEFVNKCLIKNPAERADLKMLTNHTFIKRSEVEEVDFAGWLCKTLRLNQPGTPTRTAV
320 wild-type protein kinases (Homo sapiens, UniProt Q9H1R3), sequence (Q9H1R3 whole entry): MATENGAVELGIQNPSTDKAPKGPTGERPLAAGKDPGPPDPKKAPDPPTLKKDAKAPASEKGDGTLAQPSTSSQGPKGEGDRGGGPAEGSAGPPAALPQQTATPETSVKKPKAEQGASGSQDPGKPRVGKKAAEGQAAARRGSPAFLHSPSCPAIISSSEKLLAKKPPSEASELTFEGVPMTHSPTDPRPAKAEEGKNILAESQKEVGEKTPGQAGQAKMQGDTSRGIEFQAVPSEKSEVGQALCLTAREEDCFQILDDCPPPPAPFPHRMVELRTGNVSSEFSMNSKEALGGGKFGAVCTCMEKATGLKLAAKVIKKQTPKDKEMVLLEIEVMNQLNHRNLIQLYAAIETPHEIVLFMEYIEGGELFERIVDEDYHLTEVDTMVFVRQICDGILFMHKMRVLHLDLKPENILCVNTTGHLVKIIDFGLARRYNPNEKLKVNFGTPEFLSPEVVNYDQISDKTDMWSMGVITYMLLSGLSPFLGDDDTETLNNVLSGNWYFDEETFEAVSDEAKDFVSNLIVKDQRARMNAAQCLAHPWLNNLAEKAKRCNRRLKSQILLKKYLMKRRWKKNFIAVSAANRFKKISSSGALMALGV

Row | SMILES | Residual activity, STK39 ([1]; assay conc. 1.0E-06 M) | Residual activity, STK39 ([1]; assay conc. 1.0E-07 M) | Residual activity ([2]; MEK2, 1.0E-06 M) | Residual activity ([2]; MEK2, 1.0E-07 M) | Residual activity ([3]; MYLK2, 1.0E-06 M) | Residual activity ([3]; MYLK2, 1.0E-07 M) | Residual activity ([4]; 1.0E-06 M) | Residual activity ([4]; 1.0E-07 M) | Residual activity, SIK1 ([5]; assay conc. 1.0E-06 M) | Residual activity, SIK1 ([5]; assay conc. 1.0E-07 M) | Residual activity ([6]; 1.0E-06 M) | Residual activity ([6]; 1.0E-07 M) | Residual activity ([7]; 1.0E-06 M) | Residual activity ([7]; 1.0E-07 M) | Residual activity ([8]; PRKD2, 1.0E-06 M) | Residual activity ([8]; PRKD2, 1.0E-07 M) | Residual activity ([9]; DYRK2, 1.0E-06 M) | Residual activity ([9]; DYRK2, 1.0E-07 M)
1 | C#Cc1cc(Nc2ncnc3cc(I)ccc23)ccc1Cl [Compound 41] | 98 % of control | 106 % of control | 80 % of control | 101 % of control | 75 % of control | 90 % of control | 84 % of control | 91 % of control | 77 % of control | 93 % of control | 77 % of control | 86 % of control | 98 % of control | 101 % of control | 84 % of control | 97 % of control | 61 % of control | 84 % of control
2 | C#Cc1cc(Nc2ncnc3cc(OC)c(OC)cc23)ccc1Cl [Compound 45] | 91 % of control | 102 % of control | 105 % of control | 102 % of control | 70 % of control | 89 % of control | 85 % of control | 83 % of control | 87 % of control | 101 % of control | 81 % of control | 92 % of control | 95 % of control | 98 % of control | 73 % of control | 80 % of control | 71 % of control | 89 % of control
